Here are results for four compounds from patent US12490739B2, “Synergistically effective fungicide composition comprising choline phosphonate and at least one additional fungicide” (BELCHIM CROP PROTECTION NV, priority 2019, dated 2025).

Holding throughout (assay type): in vivo
Experiment [1] has as its system Plasmopara viticola. Kind of experiment: Example 7 field trial, Vitis vinifera var. Merlot infected with downy mildew, France. The note with it: 130 g a.c./ha.
The subject of experiment [2] is Venturia inaequalis. Kind of experiment: Example 15 field trial, apple (Malus domestica var. Gala) infected with apple scab, France. To be noted: PESINC, 200 leaves, 1200 g a.c./ha.
Another experiment has as its system Sphaerotheca fuliginea. Kind of experiment: Example 8 field trial, cucumber (Cucumis sativus) infected with powdery mildew, Spain. The note with it: 7 DA-A3, BBCH 63, 500 g a.c./ha.
The subject of another experiment is Podosphaera leucotricha. Kind of experiment: Example 14 field trials, apple (Malus domestica var. Gold Rush, var. Morgenduft Dallago) infected with powdery mildew. To be noted: 840 g a.c./ha.
Experiment [3] relates to Venturia inaequalis. Kind of experiment: Example 4 field trials, apple (Malus domestica var. Golden delicious) infected with scab. To be noted: 250 g a.c./ha.
In another experiment the test system is Peronospora cumensis. Kind of experiment: Example 2 field trial, cucumber (Cucumis sativus) infected with downy mildew, France. To be noted: PESSEV, 150 g a.c./ha.
For experiment [4], the system named is Plasmopara viticola. In words: Example 1 field trial, Vitis vinifera var. Chardonnay infected with downy mildew, South Africa. The note with it: 120 g a.c./ha.

On to `O=C(NCc1ncc(C(F)(F)F)cc1Cl)c1c(Cl)cccc1Cl` [FLU, 2,6-dichloro-N-[[3-chloro-5-(trifluoromethyl)pyridin-2-yl]methyl]benzamide], for which the “FLU f.e. (%)” value in the experiment on Plasmopara viticola [1] (PESINC, 50 bunches, 0 DA-A3, BBCH 73) is given as 84.4%; in the experiment on Plasmopara viticola [1] (PESINC, 50 bunches, 0 DA-A5, BBCH 77) it was 37.5%; with Plasmopara viticola [1] (PESINC, 50 bunches, 9 DA-A6, BBCH 83), 14.5%; with Plasmopara viticola [1] (PESINC, 100 leaves, 0 DA-A3, BBCH 73) it was 62.3%; in the experiment on Plasmopara viticola [1] (PESINC, 100 leaves, 0 DA-A5, BBCH 77), 47.8%; in the experiment on Plasmopara viticola [1] (PESINC, 100 leaves, 9 DA-A6, BBCH 83), 32.2%. Further, the “FLU f.e. (%)” value in the experiment with Plasmopara viticola [1] (PESSEV, 50 bunches, 0 DA-A5, BBCH 77) came out at 83.6%; with Plasmopara viticola [1] (PESSEV, 50 bunches, 9 DA-A6, BBCH 83), 46.8%.

Take `OCC1(O)OC[C@@H](O)[C@H](O)[C@@H]1O` (stereo partly drawn) [TAG, (3S,4S,5R)-2-(hydroxymethyl)oxane-2,3,4,5-tetrol]: the “TAG f.e. (%)” value with Venturia inaequalis [2] (28 DA-A12, BBCH 73) is 28.1%; with Venturia inaequalis [2] (56 DA-A12, BBCH 75), 28.0%; with Sphaerotheca fuliginea (PESINC), 83.9%; in the experiment on Sphaerotheca fuliginea (PESSEV), 93.2%; with Podosphaera leucotricha (PESINC, location 1 (France), 20 shoots, 7 DA-A5, BBCH 71), 26.7%; in the experiment on Podosphaera leucotricha (PESINC, location 1 (France), 100 leaves, 5 DA-A8, BBCH 74), 18.8%. Besides, the “TAG f.e. (%)” value in the experiment on Podosphaera leucotricha (PESINC, location 1 (France), 100 leaves, 6 DA-A6, BBCH 74) was found to be 14.5%; in the experiment on Podosphaera leucotricha (PESINC, location 1 (France), 100 leaves, 15 DA-A8, BBCH 76), 8.7%; in the experiment on Podosphaera leucotricha (PESINC, location 1, 20 shoots, 7 DA-A5, BBCH 71, second listing (r40)), 0.6%; in the experiment on Podosphaera leucotricha (PESINC, location 1, 100 leaves, 5 DA-A8, BBCH 74, second listing (r52)), 2.4%; in the experiment with Podosphaera leucotricha (PESINC, location 1, 100 leaves, 6 DA-A6, BBCH 74, second listing (r46)) it was 36.4%; with Podosphaera leucotricha (PESINC, location 1, 100 leaves, 15 DA-A8, BBCH 76, second listing (r58)) it was 5.9%. Further, the “TAG f.e. (%)” value in the experiment with Podosphaera leucotricha (PESSEV, location 1 (France), 100 leaves, 5 DA-A8, BBCH 74) is given as 38.4%; in the experiment with Podosphaera leucotricha (PESSEV, location 1 (France), 100 leaves, 6 DA-A6, BBCH 74) it was 15.6%; in the experiment on Podosphaera leucotricha (PESSEV, location 1 (France), 100 leaves, 15 DA-A8, BBCH 76), 2.6%; in the experiment on Podosphaera leucotricha (PESSEV, location 1, 100 leaves, 5 DA-A8, BBCH 74, second listing (r49)), 1.6%; in the experiment with Podosphaera leucotricha (PESSEV, location 1, 100 leaves, 6 DA-A6, BBCH 74, second listing (r43)) it was 44.9%; in the experiment on Podosphaera leucotricha (PESSEV, location 1, 100 leaves, 15 DA-A8, BBCH 76, second listing (r55)) it was 3.5%.

Consider `N#Cc1sc2c(=O)c3ccccc3c(=O)c=2sc1C#N` [DIT, 5,10-dioxobenzo[g][1,4]benzodithiine-2,3-dicarbonitrile], for which the “DIT f.e. (%)” value with Venturia inaequalis [3] (PESINC, location 1 (France), 1 DA-A6, BBCH 74) stood at 19.8%; in the experiment on Venturia inaequalis [3] (PESINC, location 1 (France), 6 DA-A4, BBCH 72), 38.6%; with Venturia inaequalis [3] (PESINC, location 2 (United Kingdom), 5 DA-A8, BBCH 74), 59.0%; in the experiment on Venturia inaequalis [3] (PESINC, location 3 (Belgium), 31 DA-A9, BBCH 73), 51.8%; with Venturia inaequalis [3] (PESINC, location 3 (Belgium), 80 DA-A9, BBCH 73), 42.6%; in the experiment on Venturia inaequalis [3] (PESSEV, location 1 (France), 1 DA-A6, BBCH 74) it was 63.0%. For the same compound, the “DIT f.e. (%)” value in the experiment with Venturia inaequalis [3] (PESSEV, location 1 (France), 6 DA-A4, BBCH 72) is listed as 75.4%.

On to `COC(=O)CC(NC(=O)[C@@H](NC(=O)OC(C)C)C(C)C)c1ccc(Cl)cc1` (stereo partly drawn) [VAL, methyl 3-(4-chlorophenyl)-3-[[(2S)-3-methyl-2-(propan-2-yloxycarbonylamino)butanoyl]amino]propanoate], for which the “VAL f.e. (%)” value with Peronospora cumensis (6 DA-A2, BBCH 19) turned out to be 31.7%; in the experiment on Peronospora cumensis (7 DA-A1, BBCH 16), 43.6%; in the experiment with Peronospora cumensis (7 DA-A4, BBCH 19) it was 62.1%; with Peronospora cumensis (8 DA-A3, BBCH 19) it was 31.7%; in the experiment with Peronospora cumensis (14 DA-A4, BBCH 19), 27.0%; in the experiment on Plasmopara viticola [4] (PESINC, 50 bunches, 14 DA-A3, BBCH 77) it was 64.0%. Also, the “VAL f.e. (%)” value with Plasmopara viticola [4] (PESINC, 50 bunches, 14 DA-A5, BBCH 83) stood at 53.6%; in the experiment with Plasmopara viticola [4] (PESINC, 100 leaves, 14 DA-A3, BBCH 77), 57.6%; with Plasmopara viticola [4] (PESSEV, 50 bunches, 14 DA-A3, BBCH 77) it was 75.9%; in the experiment with Plasmopara viticola [4] (PESSEV, 50 bunches, 14 DA-A5, BBCH 83) it was 73.3%; with Plasmopara viticola [4] (PESSEV, 100 leaves, 14 DA-A3, BBCH 77), 66.9%.
